This is an account of results in article PMC6327487, “A cytosolic NAD^+-dependent GPDH from maize (ZmGPDH1) is involved in conferring salt and osmotic stress tolerance” (BMC Plant Biology, 2019).

In one series the target is T1, ZmGPDH1 (Zea mays, UniProt A0A345VNI6).
T1 construct: gene GPDH1; full-length CDS (458 residues, 51 kDa; 1377 bp) in pET32a(+) NcoI/XhoI, 6xHis fusion of about 65 kDa, E. coli Rosetta (DE3), Ni-NTA
T1 sequence (A0A345VNI6 1-458): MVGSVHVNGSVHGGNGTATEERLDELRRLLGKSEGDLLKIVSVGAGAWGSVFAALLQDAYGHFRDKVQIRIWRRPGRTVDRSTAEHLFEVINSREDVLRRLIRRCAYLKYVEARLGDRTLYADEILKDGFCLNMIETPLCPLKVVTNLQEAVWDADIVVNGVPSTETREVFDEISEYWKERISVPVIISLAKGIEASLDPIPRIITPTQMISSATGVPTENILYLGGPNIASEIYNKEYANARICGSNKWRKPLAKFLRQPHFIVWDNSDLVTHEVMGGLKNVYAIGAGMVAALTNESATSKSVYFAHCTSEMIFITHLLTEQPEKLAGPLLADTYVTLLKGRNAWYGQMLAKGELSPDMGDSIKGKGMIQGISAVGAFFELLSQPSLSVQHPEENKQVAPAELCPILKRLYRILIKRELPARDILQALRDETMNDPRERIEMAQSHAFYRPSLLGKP
As to the kind of experiment: GPDH activity with and without NADH. In kind it is biochemical. The conditions noted are these: 4 mM DHAP, 0.2 mM NADH, 100 mM HEPES pH 6.9 (general assay).

Substrate in the series “purified protein”: O=C(CO)COP(=O)(O)O
As to the kind of experiment: purified protein. The series is classed as biochemical, Zea mays. The conditions noted are these: DHAP reduction, 0.2 mM NADH, 100 mM HEPES pH 6.9 (general assay).

In the case of `NC(=O)C1=CN([C@@H]2O[C@H](COP(=O)(O)OP(=O)(O)OC[C@H]3O[C@@H](n4cnc5c(N)ncnc54)[C@H](O)[C@@H]3O)[C@@H](O)[C@H]2O)C=CC1` [NADH], the “GPDH activity with and without NADH” value at ZmGPDH1 is listed as “addition of NADH strongly stimulated the enzyme activity”.

B1: ZmGPDH1 (Zea mays subsp. mays) (protein)
chain: MVGSVHVNGSVHGGNGTATEERLDELRRLLGKSEGDLLKIVSVGAGAWGSVFAALLQDAYGHFRDKVQIRIWRRPGRTVDRSTAEHLFEVINSREDVLRRLIRRCAYLKYVEARLGDRTLYADEILKDGFCLNMIETPLCPLKVVTNLQEAVWDADIVVNGVPSTETREVFDEISEYWKERISVPVIISLAKGIEASLDPIPRIITPTQMISSATGVPTENILYLGGPNIASEIYNKEYANARICGSNKWRKPLAKFLRQPHFIVWDNSDLVTHEVMGGLKNVYAIGAGMVAALTNESATSKSVYFAHCTSEMIFITHLLTEQPEKLAGPLLADTYVTLLKGRNAWYGQMLAKGELSPDMGDSIKGKGMIQGISAVGAFFELLSQPSLSVQHPEENKQVAPAELCPILKRLYRILIKRELPARDILQALRDETMNDPRERIEMAQSHAFYRPSLLGKP
notes: full-length CDS (458 residues, 51 kDa; 1377 bp) in pET32a(+) NcoI/XhoI, 6xHis fusion of about 65 kDa, E. coli Rosetta (DE3), Ni-NTA
B1: the Km in “purified protein” stood at 2750 µM.

By Km is commonly meant the concentration of substrate that gives half-maximal velocity.
